Reference: patent publication US12473262B2, “Aryl hydrocarbon receptor activators” (Oregon State University, priority 2019, dated 2025)

Assays:
CYP-2B6 = CYP-2B6 (Homo sapiens (Human), UniProt P20813); test: CYP panel profile: P450 inhibition, CYP-2B6; format: in vitro ADME; details: human liver microsomes
Experimental: (§1) 5. CYP Panel Profile: P450 Inhibition
(§2) From 10 mM stock solutions of test compounds, a dilution plate was prepared diluting serially starting from 5 mM up to 2 μM in Acetonitrile/DMSO or Methanol/DMSO Human liver Microsomes were added at required concentration as per specific CYP isoform in a deep well assay plate (1A2, 2C9, 2D6, 2B6, 2C8, 2C19, and 3A4). Compounds were spiked in all wells from dilution plate at final concentrations starting from 50 μM up to 0.02 μM, except for positive and negative control. Specific substrate were added to all wells and reactions were pre-incubated for 10 min. To start reactions, NADPH was added to all wells at 1 mM final concentration. Assay plate was mixed by vortexing and incubated at 37° C. for […] for 3A4.20 min for (1A2, 2C9, 2B6, 2C8, 2D6) and […] for 2C19. A quencher with chilled acetonitrile suitable internal standard was added. Samples were centrifuged and supernatants were collected and subjected to LC-MS/MS analysis for determination.

CYP-3A4 = CYP-3A4 (Homo sapiens (Human), UniProt P08684); test: CYP panel profile: P450 inhibition, CYP-3A4; format: in vitro ADME; details: human liver microsomes
Experimental: as §1, §2

CYP-2C8 = CYP-2C8 (Homo sapiens (Human), UniProt P10632); test: CYP panel profile: P450 inhibition, CYP-2C8; format: in vitro ADME; details: human liver microsomes
Experimental: as §1, §2

CYP-2D6 = CYP-2D6 (Homo sapiens (Human), UniProt P10635); test: CYP panel profile: P450 inhibition, CYP-2D6; format: in vitro ADME; details: human liver microsomes
Experimental: as §1, §2

CYP-2C9 = CYP-2C9 (Homo sapiens (Human), UniProt P11712); test: CYP panel profile: P450 inhibition, CYP-2C9; format: in vitro ADME; details: human liver microsomes
Experimental: as §1, §2

[1] = molecular target: aryl hydrocarbon receptor (AhR) (Mus musculus (Mouse), UniProt P30561); test: AhR ligand screening: AhRE-luciferase reporter in transfected Hepa1 cells; format: cell-based; details: for Fold @ 1 nM: fold change of luciferase expression at 1 nM test compound relative to vehicle (0.1% DMSO); for Fold @ 100 nM: fold change of luciferase expression at 100 nM test compound relative to vehicle (0.1% DMSO); for Fold @ 10 uM: fold change of luciferase expression at 10 uM test compound relative to vehicle (0.1% DMSO); for Fold relative to benchmark @ 100 nM: luciferase expression at 100 nM test compound relative to 100 nM benchmark compound 11-cl-BBQ
Outline: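 Mouse Hepa1 cells transfected with an AhRE-luciferase reporter were plated at 1×10^4 cells/well, grown overnight, then exposed to compounds. Cell lysates were assayed for luciferase by luminometry, with results given as fold induction over 0.1% DMSO vehicle.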

CYP-1A2 = CYP-1A2 (Homo sapiens (Human), UniProt P05177); test: CYP panel profile: P450 inhibition, CYP-1A2; format: in vitro ADME; details: human liver microsomes; read-out: CYP-1A2 IC50
Experimental: as §1, §2

CYP-2C19 = CYP-2C19 (Homo sapiens (Human), UniProt P33261); test: CYP panel profile: P450 inhibition, CYP-2C19; format: in vitro ADME; details: human liver microsomes
Experimental: as §1, §2

CYP-2C8, sequence (P10632 whole entry): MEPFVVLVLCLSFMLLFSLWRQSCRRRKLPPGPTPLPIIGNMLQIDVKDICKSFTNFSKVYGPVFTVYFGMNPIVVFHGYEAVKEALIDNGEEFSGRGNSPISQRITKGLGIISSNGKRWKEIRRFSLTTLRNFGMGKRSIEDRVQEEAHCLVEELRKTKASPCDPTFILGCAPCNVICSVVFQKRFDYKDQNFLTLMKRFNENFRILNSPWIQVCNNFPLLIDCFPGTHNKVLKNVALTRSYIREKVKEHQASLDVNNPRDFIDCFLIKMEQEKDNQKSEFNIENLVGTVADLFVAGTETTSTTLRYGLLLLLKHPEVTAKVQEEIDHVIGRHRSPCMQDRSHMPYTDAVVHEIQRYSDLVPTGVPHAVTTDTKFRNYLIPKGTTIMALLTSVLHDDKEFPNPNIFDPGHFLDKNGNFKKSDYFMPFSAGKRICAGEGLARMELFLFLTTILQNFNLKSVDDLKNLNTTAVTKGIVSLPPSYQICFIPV
CYP-3A4, sequence (P08684 whole entry): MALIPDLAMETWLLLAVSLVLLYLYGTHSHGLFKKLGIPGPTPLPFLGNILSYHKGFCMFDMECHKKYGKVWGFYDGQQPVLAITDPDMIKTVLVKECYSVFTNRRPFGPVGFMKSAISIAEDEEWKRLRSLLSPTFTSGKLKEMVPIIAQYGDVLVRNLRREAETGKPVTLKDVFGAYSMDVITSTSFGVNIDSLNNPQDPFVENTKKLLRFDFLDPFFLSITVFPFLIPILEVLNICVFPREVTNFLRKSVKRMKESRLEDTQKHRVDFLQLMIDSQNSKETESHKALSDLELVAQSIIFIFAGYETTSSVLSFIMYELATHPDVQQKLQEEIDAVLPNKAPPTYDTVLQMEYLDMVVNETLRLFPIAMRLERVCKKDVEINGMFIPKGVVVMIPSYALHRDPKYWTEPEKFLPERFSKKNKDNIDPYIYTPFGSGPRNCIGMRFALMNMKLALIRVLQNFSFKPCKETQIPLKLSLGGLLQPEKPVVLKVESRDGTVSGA
CYP-2C9, sequence (P11712 whole entry): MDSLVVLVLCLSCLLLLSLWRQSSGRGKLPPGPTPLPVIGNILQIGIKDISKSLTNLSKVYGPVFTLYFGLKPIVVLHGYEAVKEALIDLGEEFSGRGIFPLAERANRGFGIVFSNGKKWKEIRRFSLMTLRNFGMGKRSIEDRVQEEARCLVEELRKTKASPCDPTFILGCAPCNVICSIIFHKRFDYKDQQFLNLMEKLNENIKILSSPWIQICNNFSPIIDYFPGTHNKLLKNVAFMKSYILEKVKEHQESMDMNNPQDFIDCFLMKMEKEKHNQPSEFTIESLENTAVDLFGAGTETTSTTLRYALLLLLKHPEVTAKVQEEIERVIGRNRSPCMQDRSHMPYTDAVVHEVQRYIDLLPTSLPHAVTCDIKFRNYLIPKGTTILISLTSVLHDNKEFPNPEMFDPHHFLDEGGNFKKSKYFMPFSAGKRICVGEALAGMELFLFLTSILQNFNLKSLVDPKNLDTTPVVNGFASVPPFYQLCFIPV
aryl hydrocarbon receptor (AhR), sequence (P30561 10-805): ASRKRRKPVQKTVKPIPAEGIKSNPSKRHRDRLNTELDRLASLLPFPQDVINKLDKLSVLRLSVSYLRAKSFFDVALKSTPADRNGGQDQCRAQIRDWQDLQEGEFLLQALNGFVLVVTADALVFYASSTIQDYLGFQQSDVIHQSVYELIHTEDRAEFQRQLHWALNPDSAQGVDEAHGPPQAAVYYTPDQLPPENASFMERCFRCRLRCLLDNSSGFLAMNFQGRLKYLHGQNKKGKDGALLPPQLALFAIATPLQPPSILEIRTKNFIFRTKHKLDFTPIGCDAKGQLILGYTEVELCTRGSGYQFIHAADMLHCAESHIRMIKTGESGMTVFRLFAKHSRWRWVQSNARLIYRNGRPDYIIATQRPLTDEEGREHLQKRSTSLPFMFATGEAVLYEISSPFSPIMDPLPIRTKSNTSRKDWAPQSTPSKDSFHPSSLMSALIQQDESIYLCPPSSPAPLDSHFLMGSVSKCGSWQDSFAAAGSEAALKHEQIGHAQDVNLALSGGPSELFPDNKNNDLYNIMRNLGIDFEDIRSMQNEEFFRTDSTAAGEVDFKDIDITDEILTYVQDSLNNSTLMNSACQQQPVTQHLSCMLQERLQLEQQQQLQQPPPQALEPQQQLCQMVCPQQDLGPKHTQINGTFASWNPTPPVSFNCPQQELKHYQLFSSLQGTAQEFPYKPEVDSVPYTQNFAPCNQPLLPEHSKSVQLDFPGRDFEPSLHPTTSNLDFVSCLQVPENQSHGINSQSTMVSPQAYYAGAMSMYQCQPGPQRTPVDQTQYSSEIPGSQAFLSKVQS
aryl hydrocarbon receptor (AhR), sequence (P53762 whole entry partner): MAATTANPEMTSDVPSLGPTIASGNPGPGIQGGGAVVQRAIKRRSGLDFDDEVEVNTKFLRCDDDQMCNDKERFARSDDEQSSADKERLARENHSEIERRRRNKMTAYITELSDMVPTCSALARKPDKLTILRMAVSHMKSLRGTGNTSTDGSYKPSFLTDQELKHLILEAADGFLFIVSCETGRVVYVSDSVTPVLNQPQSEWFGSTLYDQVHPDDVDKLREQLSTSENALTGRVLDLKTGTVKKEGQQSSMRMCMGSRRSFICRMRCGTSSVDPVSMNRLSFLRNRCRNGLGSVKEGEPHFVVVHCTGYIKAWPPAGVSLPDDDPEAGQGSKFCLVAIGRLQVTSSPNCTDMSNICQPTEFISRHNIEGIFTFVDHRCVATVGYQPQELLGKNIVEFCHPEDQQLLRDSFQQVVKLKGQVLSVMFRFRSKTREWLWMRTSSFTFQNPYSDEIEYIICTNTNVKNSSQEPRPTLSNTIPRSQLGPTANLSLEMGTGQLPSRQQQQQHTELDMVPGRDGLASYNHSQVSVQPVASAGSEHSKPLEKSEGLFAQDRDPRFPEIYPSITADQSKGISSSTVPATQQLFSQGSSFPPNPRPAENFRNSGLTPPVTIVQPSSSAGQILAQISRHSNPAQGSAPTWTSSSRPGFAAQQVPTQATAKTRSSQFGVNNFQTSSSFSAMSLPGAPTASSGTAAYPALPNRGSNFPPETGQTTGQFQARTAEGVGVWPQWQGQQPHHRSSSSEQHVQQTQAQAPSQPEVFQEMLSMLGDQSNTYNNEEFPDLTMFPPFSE
CYP-1A2, sequence (P05177 whole entry): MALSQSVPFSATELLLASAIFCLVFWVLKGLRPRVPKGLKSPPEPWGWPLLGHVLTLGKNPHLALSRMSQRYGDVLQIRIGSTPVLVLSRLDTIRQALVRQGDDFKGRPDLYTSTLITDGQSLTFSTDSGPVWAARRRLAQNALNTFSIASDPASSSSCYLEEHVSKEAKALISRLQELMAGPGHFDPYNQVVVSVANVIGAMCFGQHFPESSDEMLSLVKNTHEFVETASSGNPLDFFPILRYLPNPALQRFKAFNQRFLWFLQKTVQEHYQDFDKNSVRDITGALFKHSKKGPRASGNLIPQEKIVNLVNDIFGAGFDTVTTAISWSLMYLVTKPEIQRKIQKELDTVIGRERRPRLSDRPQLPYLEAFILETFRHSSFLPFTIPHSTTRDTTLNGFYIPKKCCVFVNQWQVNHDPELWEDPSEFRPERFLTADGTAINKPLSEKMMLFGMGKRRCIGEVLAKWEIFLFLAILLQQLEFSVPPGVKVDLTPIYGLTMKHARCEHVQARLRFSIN
CYP-2C19, sequence (P33261 whole entry): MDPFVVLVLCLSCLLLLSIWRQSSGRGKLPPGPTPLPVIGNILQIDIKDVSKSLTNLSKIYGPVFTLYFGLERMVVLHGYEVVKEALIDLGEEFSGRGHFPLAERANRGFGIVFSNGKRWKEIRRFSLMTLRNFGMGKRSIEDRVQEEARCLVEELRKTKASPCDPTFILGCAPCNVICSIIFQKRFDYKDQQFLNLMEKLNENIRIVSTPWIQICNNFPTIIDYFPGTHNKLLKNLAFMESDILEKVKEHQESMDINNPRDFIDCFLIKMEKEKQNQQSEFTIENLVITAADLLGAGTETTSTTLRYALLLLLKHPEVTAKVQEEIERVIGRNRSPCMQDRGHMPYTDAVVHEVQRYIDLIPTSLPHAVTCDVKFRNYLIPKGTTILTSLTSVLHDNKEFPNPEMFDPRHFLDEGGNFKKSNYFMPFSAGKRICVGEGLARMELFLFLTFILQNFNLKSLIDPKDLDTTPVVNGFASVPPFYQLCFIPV
CYP-2B6, sequence (P20813 whole entry): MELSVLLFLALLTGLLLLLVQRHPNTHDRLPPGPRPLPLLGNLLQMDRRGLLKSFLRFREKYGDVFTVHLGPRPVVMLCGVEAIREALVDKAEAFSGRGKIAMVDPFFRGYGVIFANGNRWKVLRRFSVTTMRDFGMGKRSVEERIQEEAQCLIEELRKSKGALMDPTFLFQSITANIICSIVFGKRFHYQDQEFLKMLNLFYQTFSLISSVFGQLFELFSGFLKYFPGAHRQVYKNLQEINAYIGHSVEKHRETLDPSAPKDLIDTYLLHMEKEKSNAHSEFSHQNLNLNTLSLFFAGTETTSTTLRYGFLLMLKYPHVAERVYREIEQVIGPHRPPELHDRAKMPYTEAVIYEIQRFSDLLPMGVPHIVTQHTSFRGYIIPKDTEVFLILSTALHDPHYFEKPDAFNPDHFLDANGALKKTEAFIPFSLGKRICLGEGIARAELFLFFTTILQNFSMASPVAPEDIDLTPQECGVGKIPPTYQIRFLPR

O=C(c1ccc(F)cc1)n1c(-c2cccc3ccccc23)nc2cc(Cl)ccc21 [Compound 586]
IC50 (CYP-2B6): 22 µM
IC50 (CYP-3A4): 1.3 µM
IC50 (CYP-2C8): 9.1 µM
IC50 (CYP-2D6): > 50 µM
IC50 (CYP-2C9): 7.9 µM
Fold @ 1 nM [1]: 7 fold
Fold @ 100 nM [1]: 20 fold
Fold @ 10 uM [1]: 18 fold
Fold relative to benchmark @ 100 nM [1]: 1.33 fold
IC50 (CYP-1A2): 1.7 µM
IC50 (CYP-2C19): 7.1 µM

O=C(c1ccc(F)cc1)n1c(-c2cccc3ccccc23)nc2ccc(Cl)cc21 [Compound 587]
IC50 (CYP-2B6): 11.6 µM
IC50 (CYP-3A4): 6.3 µM
IC50 (CYP-2C8): 3.2 µM
IC50 (CYP-2D6): 26 µM
IC50 (CYP-2C9): 5.3 µM
Fold @ 1 nM [1]: 2 fold
Fold @ 100 nM [1]: 16 fold
Fold @ 10 uM [1]: 19 fold
Fold relative to benchmark @ 100 nM [1]: 1.07 fold
IC50 (CYP-1A2): 0.4 µM
IC50 (CYP-2C19): 6.7 µM

O=C(c1c(F)cc(Br)cc1F)n1c(-c2cccc3ccccc23)nc2cc(Cl)ccc21 [Compound 638]
IC50 (CYP-2B6): 11.6 µM
IC50 (CYP-3A4): 8.1 µM
IC50 (CYP-2C8): 1.8 µM
IC50 (CYP-2D6): 14.5 µM
IC50 (CYP-2C9): 5.2 µM
Fold @ 1 nM [1]: 1 fold
Fold @ 100 nM [1]: 12 fold
Fold @ 10 uM [1]: 20 fold
Fold relative to benchmark @ 100 nM [1]: 1.17 fold
IC50 (CYP-1A2): 0.3 µM
IC50 (CYP-2C19): 3.4 µM

O=C(C1CCCCC1)n1c(-c2cccc3ccccc23)nc2ccc(Cl)cc21 [Compound 640]
IC50 (CYP-2B6): 31.1 µM
IC50 (CYP-3A4): 3.8 µM
IC50 (CYP-2C8): 2.3 µM
IC50 (CYP-2D6): 29 µM
IC50 (CYP-2C9): 4.5 µM
Fold @ 1 nM [1]: 1 fold
Fold @ 100 nM [1]: 10 fold
Fold @ 10 uM [1]: 15 fold
Fold relative to benchmark @ 100 nM [1]: 1.21 fold
IC50 (CYP-1A2): 0.6 µM
IC50 (CYP-2C19): 2.4 µM

O=C(c1ccc(F)c(F)c1)n1c(-c2ccc(-c3ccccc3)cc2)nc2cc(Cl)ccc21 [Compound 643]
IC50 (CYP-2B6): > 50 µM
IC50 (CYP-3A4): > 50 µM
IC50 (CYP-2C8): 12.3 µM
IC50 (CYP-2D6): > 50 µM
IC50 (CYP-2C9): 9.2 µM
Fold @ 1 nM [1]: 1 fold
Fold @ 100 nM [1]: 1 fold
Fold @ 10 uM [1]: 2 fold
Fold relative to benchmark @ 100 nM [1]: 0.11 fold
IC50 (CYP-1A2): 20.7 µM
IC50 (CYP-2C19): > 50 µM

O=C(c1ccccc1)n1c(-c2cccc3ccccc23)nc2cc(Cl)c(Cl)cc21 [Compound 693]
IC50 (CYP-2B6): > 50 µM
IC50 (CYP-3A4): 2 µM
IC50 (CYP-2C8): 3.5 µM
IC50 (CYP-2D6): > 50 µM
IC50 (CYP-2C9): 11.6 µM
Fold @ 1 nM [1]: 2 fold
Fold @ 100 nM [1]: 32 fold
Fold @ 10 uM [1]: 87 fold
Fold relative to benchmark @ 100 nM [1]: 1.23 fold
IC50 (CYP-1A2): 8.6 µM
IC50 (CYP-2C19): 24.1 µM

O=C(c1ccccc1)n1c(-c2cccc3ccccc23)nc2cc(OC(F)(F)F)ccc21 [Compound 703]
IC50 (CYP-2B6): 12 µM
IC50 (CYP-3A4): 10.3 µM
IC50 (CYP-2C8): 4.2 µM
IC50 (CYP-2D6): > 50 µM
IC50 (CYP-2C9): 5.3 µM
Fold @ 1 nM [1]: 1 fold
Fold @ 100 nM [1]: 22 fold
Fold @ 10 uM [1]: 23 fold
Fold relative to benchmark @ 100 nM [1]: 0.85 fold
IC50 (CYP-1A2): 0.8 µM
IC50 (CYP-2C19): 0.5 µM

COC(=O)c1ccc2c(c1)nc(-c1cccc3ccccc13)n2C(=O)c1ccc(F)c(F)c1 [Compound 848]
IC50 (CYP-2B6): 16.7 µM
IC50 (CYP-3A4): 13.7 µM
IC50 (CYP-2C8): 3.5 µM
IC50 (CYP-2D6): 2.9 µM
IC50 (CYP-2C9): 6.3 µM
Fold @ 1 nM [1]: 1 fold
Fold @ 100 nM [1]: 1 fold
Fold @ 10 uM [1]: 5 fold
Fold relative to benchmark @ 100 nM [1]: 0.04 fold
IC50 (CYP-1A2): 2.6 µM
IC50 (CYP-2C19): 1.1 µM

COC(=O)c1ccc2nc(-c3cccc4ccccc34)n(C(=O)c3ccc(F)c(F)c3)c2c1 [Compound 849]
IC50 (CYP-2B6): > 48 µM
IC50 (CYP-3A4): > 50 µM
IC50 (CYP-2C8): 4.1 µM
IC50 (CYP-2D6): 19.3 µM
IC50 (CYP-2C9): 7.7 µM
Fold @ 1 nM [1]: 1 fold
Fold @ 100 nM [1]: 1 fold
Fold @ 10 uM [1]: 1 fold
Fold relative to benchmark @ 100 nM [1]: 0.04 fold
IC50 (CYP-1A2): 15.1 µM
IC50 (CYP-2C19): 1.5 µM
